Results on 4 compounds are retold here after patent publication US6436921B1, “Carbapenem derivatives and a preparation method thereof” (Korea Institute of Science and Technology, priority 1997, dated 2002).

SMILES strings stand for the structures. In brackets after ≈: the same amount, converted by molar mass.

Data set [1] concerns Staphylococcus aureus 285. Kind of data set: Antibacterial activity test (agar dilution MIC). It is filed as cell-based. As to conditions: Staphylococcus aureus 285, agar; read-out: Minimum inhibitory concentration. The protocol:
(§1) Gram-positive Streptococcus and Staphylococcus and Gram-negative Escherichia coli, Pseudomonas, Salmonella, Klebsiella and Enterobacter were selected for the test. After the cells were diluted and cultured in agar, the compounds of the present invention were treated to obtain the minimum inhibitory concentration in the units of μg/ml.
(In general: In agar dilution the substance is mixed into plates at graded concentrations.)

The test system of data set [2] is Streptococcus faecium MD8b. Kind of data set: Antibacterial activity test (agar dilution MIC). Conditions: Enterococcus faecium, read-out: Minimum inhibitory concentration. Type of data set: cell-based. The method, then: as §1
Data set [3] relates to Escherichia coli 078. Kind of data set: Antibacterial activity test (agar dilution MIC). Type of data set: cell-based. Conditions: Escherichia coli 078, agar; read-out: Minimum inhibitory concentration. The protocol:
as §1

Another data set deals with Escherichia coli 1507E. Kind of data set: Antibacterial activity test (agar dilution MIC). Conditions: read-out: Minimum inhibitory concentration. Type of data set: cell-based. The protocol: as §1
In data set [4] the test system is Pseudomonas aeruginosa 1592E. Kind of data set: Antibacterial activity test (agar dilution MIC). It is filed as cell-based. Conditions: read-out: Minimum inhibitory concentration. The protocol:
as §1

For another data set, the system named is Klebsiella oxytoca 1082E. Kind of data set: Antibacterial activity test (agar dilution MIC). Conditions: read-out: Minimum inhibitory concentration. It is filed as cell-based. The method, then:
as §1

Data set [5] deals with Streptococcus pyogenes 77A. Kind of data set: Antibacterial activity test (agar dilution MIC). Type of data set: cell-based. As to conditions: read-out: Minimum inhibitory concentration. The method, then: as §1
The subject of data set [6] is Pseudomonas aeruginosa 1771. Description: Antibacterial activity test (agar dilution MIC). It is filed as cell-based. Conditions: Pseudomonas aeruginosa 1771, agar; read-out: Minimum inhibitory concentration. The method, then: as §1
The subject of the next data set is Escherichia coli DC0. Description: Antibacterial activity test (agar dilution MIC). Type of data set: cell-based. As to conditions: read-out: Minimum inhibitory concentration. The method, then: as §1
The test system of data set [7] is Streptococcus pyogenes 308A. Description: Antibacterial activity test (agar dilution MIC). It is filed as cell-based. Conditions: read-out: Minimum inhibitory concentration. The protocol:
as §1

Data set [8] deals with Klebsiella aerogenes 1522E. Description: Antibacterial activity test (agar dilution MIC). It is filed as cell-based. As to conditions: read-out: Minimum inhibitory concentration. The method, then:
as §1

The subject of data set [9] is Enterobacter cloacae 1321E. Description: Antibacterial activity test (agar dilution MIC). Type of data set: cell-based. As to conditions: read-out: Minimum inhibitory concentration. The method, then: as §1
The subject of the next data set is Escherichia coli DC2. Description: Antibacterial activity test (agar dilution MIC). Type of data set: cell-based. As to conditions: read-out: Minimum inhibitory concentration. The protocol:
as §1

For data set [10], the system named is Staphylococcus aureus 503. Description: Antibacterial activity test (agar dilution MIC). Conditions: Staphylococcus aureus 503, agar; read-out: Minimum inhibitory concentration. It is filed as cell-based. The protocol: as §1
A further data set has as its system Enterobacter cloacae P99. Kind of data set: Antibacterial activity test (agar dilution MIC). Type of data set: cell-based. As to conditions: read-out: Minimum inhibitory concentration. The method, then:
as §1

In the next data set the test system is Escherichia coli TEM. Kind of data set: Antibacterial activity test (agar dilution MIC). It is filed as cell-based. Conditions: Escherichia coli, read-out: Minimum inhibitory concentration. The method, then:
as §1

In a further data set the test system is Salmonella typhimurium. Description: Antibacterial activity test (agar dilution MIC). It is filed as cell-based. As to conditions: Salmonella enterica, read-out: Minimum inhibitory concentration. The protocol:
as §1

The subject of data set [11] is Pseudomonas aeruginosa 9027. Description: Antibacterial activity test (agar dilution MIC). Conditions: Pseudomonas aeruginosa 9027, agar; read-out: Minimum inhibitory concentration. Type of data set: cell-based. The method, then:
as §1

The test system of data set [12] is Staphylococcus aureus SG511. Description: Antibacterial activity test (agar dilution MIC). Type of data set: cell-based. As to conditions: read-out: Minimum inhibitory concentration. The method, then:
as §1

The test system of data set [13] is Pseudomonas aeruginosa 1771M. Description: Antibacterial activity test (agar dilution MIC). Type of data set: cell-based. As to conditions: Pseudomonas aeruginosa, 1771M, read-out: Minimum inhibitory concentration. The protocol:
as §1

The target of data set [14] is DHP-I (renal dehydropeptidase-I) (Homo sapiens, UniProt P16444). Description: in vitro. As to conditions: renal enzyme DHP-I.
The subject of data set [15] is Escherichia coli 078. Description: PD50 test using mice. Further details: PD50: unit not given beside the values. As to conditions: Escherichia coli 078. It is filed as in vivo. The source says:
(§2) This means that ⅓ of the amount of the compound 10 has the same effect as meropenem.
(§3) Streptococcus pyrogenes A 77 and Escherichia coli 078 were selected as gram-positive and gram-negative strains, respectively.

The subject of data set [16] is Streptococcus pyrogenes A 77. Kind of data set: PD50 test using mice. Further details: PD50: unit not given beside the values. Type of data set: in vivo. As to conditions: Streptococcus pyrogenes A 77.
Description: as §2, §3

The nature of data set [17]: Bioavailability test, subcutaneous injection to mice. Type of data set: in vivo.

Chain of DHP-I (renal dehydropeptidase-I) (P16444 17-385): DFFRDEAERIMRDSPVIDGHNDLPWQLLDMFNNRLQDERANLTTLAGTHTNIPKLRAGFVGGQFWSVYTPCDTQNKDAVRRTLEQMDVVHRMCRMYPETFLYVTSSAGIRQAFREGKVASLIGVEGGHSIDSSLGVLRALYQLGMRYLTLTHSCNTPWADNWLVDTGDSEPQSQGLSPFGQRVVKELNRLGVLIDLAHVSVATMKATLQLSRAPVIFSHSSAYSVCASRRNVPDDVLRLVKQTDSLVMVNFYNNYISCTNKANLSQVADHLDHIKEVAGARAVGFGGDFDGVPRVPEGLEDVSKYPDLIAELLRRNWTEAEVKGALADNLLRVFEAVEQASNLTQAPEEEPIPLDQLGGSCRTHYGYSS

Consider `CNC(=O)CCNC(=O)[C@@H]1C[C@H](SC2=C(C(=O)O)N3C(=O)[C@H]([C@@H](C)O)[C@H]3[C@H]2C)CN1` [Compound 2], for which the MIC in [1] came to 0.781 µg/mL (≈ 1.77 µM); in [2], 12.5 µg/mL (≈ 28.4 µM); with Escherichia coli 078 [3] it was 0.049 µg/mL (≈ 0.111 µM); with Escherichia coli 1507E, 0.025 µg/mL (≈ 0.0568 µM); in data set [4], 0.781 µg/mL (≈ 1.77 µM); in the data set on Klebsiella oxytoca 1082E it was 0.098 µg/mL (≈ 0.222 µM). Further, the MIC worked out at 0.013 µg/mL (≈ 0.0295 µM) in [5]; 0.781 µg/mL (≈ 1.77 µM) in data set [6]; 0.049 µg/mL (≈ 0.111 µM) in the data set with Escherichia coli DC0; 0.013 µg/mL (≈ 0.0295 µM) in data set [7]; 0.049 µg/mL (≈ 0.111 µM) in data set [8]; 0.025 µg/mL (≈ 0.0568 µM) in [9]. Also, the MIC with Escherichia coli DC2 amounted to 0.098 µg/mL (≈ 0.222 µM); in [10] it was 0.195 µg/mL (≈ 0.443 µM); in the data set on Enterobacter cloacae P99, 0.049 µg/mL (≈ 0.111 µM); in the data set on Escherichia coli TEM, 0.025 µg/mL (≈ 0.0568 µM); with Salmonella typhimurium, 0.049 µg/mL (≈ 0.111 µM); in [11], 0.781 µg/mL (≈ 1.77 µM). Also, the MIC in data set [12] and in [13] was 0.391 µg/mL (≈ 0.888 µM) throughout.

By half-life is commonly meant the time in which the quantity being followed falls by half. `C[C@@H](O)[C@H]1C(=O)N2C(C(=O)O)=C(SCCN=CN)C[C@H]12` [imipenem, reference compound] had a half-life in data set [14] of 30 min.

Consider `C[C@@H](O)[C@H]1C(=O)N2C(C(=O)O)=C(S[C@@H]3CN[C@H](C(=O)NCCC(N)=O)C3)[C@H](C)[C@H]12` [Compound 1], for which the MIC in [1] was 0.195 µg/mL (≈ 0.457 µM); in data set [2] it was 12.5 µg/mL (≈ 29.3 µM); with Escherichia coli 078 [3], 0.025 µg/mL (≈ 0.0586 µM); with Escherichia coli 1507E, 0.025 µg/mL (≈ 0.0586 µM); in data set [4] it was 0.391 µg/mL (≈ 0.917 µM); with Klebsiella oxytoca 1082E, 0.098 µg/mL (≈ 0.23 µM). In addition, the MIC in [5] was found to be 0.007 µg/mL (≈ 0.0164 µM); in [6], 0.781 µg/mL (≈ 1.83 µM); in the data set with Escherichia coli DC0, 0.025 µg/mL (≈ 0.0586 µM); in data set [7], 0.013 µg/mL (≈ 0.0305 µM); in [8] it was 0.049 µg/mL (≈ 0.115 µM); in data set [9], 0.025 µg/mL (≈ 0.0586 µM). For the same compound, the MIC was 0.098 µg/mL (≈ 0.23 µM) in data set [10]; 0.049 µg/mL (≈ 0.115 µM) in the data set on Enterobacter cloacae P99; 0.025 µg/mL (≈ 0.0586 µM) in the data set with Escherichia coli TEM; 0.049 µg/mL (≈ 0.115 µM) with Salmonella typhimurium; 0.391 µg/mL (≈ 0.917 µM) in data set [11]; 0.195 µg/mL (≈ 0.457 µM) in data set [12]. Moreover, the MIC in data set [13] came to 0.391 µg/mL (≈ 0.917 µM).

By Cmax is commonly meant the highest concentration seen after dosing. A word on the Tmax: it is the time from dosing to the highest level. One may read the AUC as the area under the concentration-time curve, a measure of exposure. Compound `C[C@@H](O)[C@H]1C(=O)N2C(C(=O)O)=C(S[C@@H]3CN[C@H](C(=O)N(C)C)C3)[C@H](C)[C@H]12` [meropenem, reference compound] came in with a PD50 in the data set with Escherichia coli 078 [15] of 1.24. In addition, in data set [16], the PD50 is on record as 7.16. Further, in data set [17], the peak concentration (Cmax) turned out to be 7600 ± 550 ng/mL, the T1/2 was 14.4 ± 13.2 min and the time of peak concentration (Tmax) amounted to 12.6 ± 2.4 min. In data set [17] (mouse, in vivo, sc, AUC 0-2 hr), this compound returned an AUC of 3290 ± 290 ng·h/mL.
